Like-named read-outs stand apart in the source and are kept apart here.

Our source for the IC50 values is patent US20210380606A1, “5-AZAINDAZOLE DERIVATIVES AS ADENOSINE RECEPTOR ANTAGONISTS” (Merck Patent GmbH, priority 2018, published 2021).

What all share (assay type): cell-based
The target of test [1] is T1, Gs-coupled human A2A receptor (Homo sapiens, UniProt P29274).
T1 construct: The endogenous functional activity of the Gs-coupled human A2A receptor was measured in T cells; endogenous in cells; host or cells: human pan T cells isolated from PBMC of fresh whole blood
T1 sequence (P29274 whole entry): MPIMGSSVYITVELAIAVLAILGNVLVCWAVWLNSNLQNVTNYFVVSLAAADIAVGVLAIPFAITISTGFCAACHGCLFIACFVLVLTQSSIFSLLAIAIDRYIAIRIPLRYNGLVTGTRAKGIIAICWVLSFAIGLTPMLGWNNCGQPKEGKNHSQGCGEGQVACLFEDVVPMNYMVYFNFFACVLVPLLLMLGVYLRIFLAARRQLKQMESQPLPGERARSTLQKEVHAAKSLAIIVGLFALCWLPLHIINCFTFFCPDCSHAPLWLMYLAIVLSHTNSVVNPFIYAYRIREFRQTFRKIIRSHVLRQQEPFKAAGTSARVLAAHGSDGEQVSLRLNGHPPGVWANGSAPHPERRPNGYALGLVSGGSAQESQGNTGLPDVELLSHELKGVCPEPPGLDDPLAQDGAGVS
The experiment in a line: Human T cell assay, endogenous A2A receptor, cAMP (HTRF). As to the method: The endogenous functional activity of the Gs-coupled human A2A receptor was measured in T cells, where this receptor is highly expressed. Determination of receptor activity was done by quantification of cAMP, which is a second messenger for adenosine receptors.
In short, human pan T cells were isolated from human PBMC (MACS Pan T Cell Isolation Kit, Miltenyi Biotec) that have been derived from fresh whole blood. The T cells were seeded in 384-well microtiter plates and treated with test compounds. […] Finally, HTRF reagents (cAMP Femto Kit, CisBio) were added to the wells, and after 1 h cellular cAMP levels were determined using the ENVISION (Perkin Elmer) plate reader.
The obtained raw data were normalized against the inhibitor control and the neutral control (DMSO) and the normalized data were fitted using Genedata Screener software.

Test [2] has as its target T2, human A2B receptors (Homo sapiens, UniProt P29275).
T2 construct: expressed in transfected cells; host or cells: HEK293
T2 sequence (P29275 1-332): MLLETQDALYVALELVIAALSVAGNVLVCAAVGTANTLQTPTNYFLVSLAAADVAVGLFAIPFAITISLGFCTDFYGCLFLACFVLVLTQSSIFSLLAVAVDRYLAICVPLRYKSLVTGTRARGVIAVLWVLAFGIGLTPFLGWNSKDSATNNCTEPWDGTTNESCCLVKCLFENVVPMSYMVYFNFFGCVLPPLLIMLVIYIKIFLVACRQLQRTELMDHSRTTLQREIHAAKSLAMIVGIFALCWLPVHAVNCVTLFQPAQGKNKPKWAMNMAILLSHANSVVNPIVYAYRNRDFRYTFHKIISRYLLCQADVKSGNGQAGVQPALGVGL
The experiment in a line: Functional human A2B receptor activity, recombinant HEK293 cells, cAMP (HTRF). In outline:
(§1)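 15 min incubation → HTRF cAMP reagents added → cellular cAMP read on plate reader. cAMP serves as adenosine receptor second messenger.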

Test [3] concerns the target T3, human A2A receptors (Homo sapiens, UniProt P29274).
T3 construct: expressed in transfected cells; host or cells: HEK293
Kind of test: Functional human A2A receptor activity, recombinant HEK293 cells, cAMP (HTRF). In outline: as §1
Background: Time-resolved FRET reads energy transfer from a long-lived donor to a nearby acceptor.

For test [4], the system named is Human T cell. The experiment in a line: Human T cell IL-2. The following applies: human T cells.
Test [5] relates to mouse Pan T cells. Kind of test: Mouse T cell IL-2 rescue from NECA (CD3/CD28-activated Pan T cells, ELISA). Particulars: 24 h. The source says: Adenosine (Ado) in tumor microenvironment can inhibit T cell activity by signaling through A2A receptors and suppress cytokine secretion by T cells. […] Potential A2A antagonists or A2A/A2B dual antagonists can rescue T cells from this inhibition. Herein, we describe the in vitro system we established using Pan T cells from mouse spleens to screen potential A2A antagonists or A2A/A2B dual antagonists for their activity. The method described involves the use of CD3/CD28 pre-coated beads to stimulate Pan T cells purified from mouse splenocytes, combined with the addition of A2A agonist along with potential A2A or A2A/A2B dual antagonists to evaluate potentiation of T cell cytokine production.
Briefly, mouse Pan T cells are purified from spleens of BALB/c mice using Pan T cell isolation kit Mouse II (MACS Miltenyi biotech Cat #Order no. 130-095-130) according to manufacturer's protocol. The purified T cells are seeded in Nunc™ 96-Well Polystyrene Round Bottom Microwell Plates in RPMI medium with 10% heat inactivated fetal bovine serum. The cells are rested at 37° C. for 1 h before activating with CD3/CD28 pre-coated beads (Dynabeads™ Mouse T-Activator CD3/CD28; Cat #11456D). After 30 min the cells are treated with varying doses of test antagonist(s). […] After 24 h incubation IL-2 levels in the supernatants are measured by ELISAs according to manufacturer's protocol (R&D systems Cat #DY402 (IL-2)). Once the concentrations are calculated, the difference of cytokine concentration of DMSO control and agonist alone control is calculated and the percentage of rescue by each concentration of antagonist is calculated by using Microsoft Excel. These percentages of cytokine rescue in a dose dependent manner of antagonist is plotted in GraphPad Prism software and IC50 is calculated.

Setting [6] is: read-out: Functional A2B receptor activity HEK293, cAMP IC50.
Where [7] appears, read: read-out: Functional A2A receptor activity, HEK293, cAMP, IC50.

T3 sequence (P29274 whole entry): as the sequence (P29274 whole entry) above

As to `O=C(c1cc2c(cn1)c(-c1cnc3c(F)cccn13)nn2CC(F)(F)F)N1[C@@H]2CC[C@H]1C[C@@H](O)C2` [Compound 85, [3-(8-fluoroimidazo[1,2-a]pyridin-3-yl)-1-(2,2,2-trifluoroethyl)pyrazolo[4,3-c]pyridin-6-yl]-(3-endo-hydroxy-8-azabicyclo[3.2.1]octan-8-yl)methanone], the IC50 in test [1] was under 100 nM; in test [2] (read-out: A2B (Category)) it was under 100 nM; in test [3] (read-out: A2A (Category)) it was under 100 nM; in test [4] it was under 1000 nM; in test [5] it was under 100 nM.

Turning to `O=C(c1cc2c(cn1)c(-c1coc3ccc(F)cc13)nn2CC(F)(F)F)N1CCCOCC1` [Compound 109, [3-(5-fluorobenzofuran-3-yl)-1-(2,2,2-trifluoroethyl)pyrazolo[4,3-c]pyridin-6-yl]-(1,4-oxazepan-4-yl)methanone], the IC50 in test [1] is under 100 nM; in test [2] (read-out: A2B (Category)), under 100 nM; in test [3] (read-out: A2A (Category)) it was under 100 nM; in test [4], under 100 nM; in test [5] it was under 1000 nM.

As for `O=C(c1cc2c(cn1)c(-c1coc3ccccc13)nn2CC(F)(F)F)N1CCOCC(O)C1` (centres unmarked) [Compound 224, [3-(benzofuran-3-yl)-1-(2,2,2-trifluoroethyl)pyrazolo[4,3-c]pyridin-6-yl]-(6-hydroxy-1,4-oxazepan-4-yl)methanone], the IC50 was under 100 nM in test [1]; under 100 nM in test [2] (read-out: A2B (Category)); under 100 nM in test [3] (read-out: A2A (Category)); under 100 nM in test [4]; under 1000 nM in test [5].

As to `CCN(C(=O)c1cc2c(cn1)c(-c1coc3ccccc13)nn2CC(F)(F)F)C1CCCCC1` [Compound 235, 3-(benzofuran-3-yl)-N-cyclohexyl-N-ethyl-1-(2,2,2-trifluoroethyl)pyrazolo[4,3-c]pyridine-6-carboxamide], the IC50 is under 1000 nM in test [2] (read-out: A2B (Category)) and under 100 nM in test [3] (read-out: A2A (Category)).

As to `NC(=O)c1ccc2occ(-c3nn(CC(F)(F)F)c4cc(C(=O)N5CCCOCC5)ncc34)c2c1` [Compound 237, 3-[6-(1,4-oxazepane-4-carbonyl)-1-(2,2,2-trifluoroethyl)pyrazolo[4,3-c]pyridin-3-yl]benzofuran-5-carboxamide], the IC50 in test [2] (read-out: A2B (Category)) was under 1000 nM; in test [3] (read-out: A2A (Category)), under 100 nM.

As for `O=C(c1cc2c(cn1)c(-c1c[nH]c3ccccc13)nn2CC(F)(F)F)N1CC2CCC(C1)O2` [Compound 243, [3-(1H-indol-3-yl)-1-(2,2,2-trifluoroethyl)pyrazolo[4,3-c]pyridin-6-yl]-(8-oxa-3-azabicyclo[3.2.1]octan-3-yl)methanone], the values for the IC50 in test [2] (read-out: A2B (Category)) and in test [3] (read-out: A2A (Category)) were under 1000 nM and under 100 nM, respectively.

For `Cc1cc(C(N)=O)cn2c(-c3nn(CC(F)(F)F)c4cc(C(=O)N5CCCCCC5)ncc34)cnc12` [Compound 244, 3-[6-(Azepane-1-carbonyl)-1-(2,2,2-trifluoro-ethyl)-1H-pyrazolo[4,3-c]pyridin-3-yl]-8-methyl-imidazo[1,2-a]pyridine-6-carboxylic acid amide], the IC50 is under 1000 nM in test [2] (read-out: A2B (Category)) and under 100 nM in test [3] (read-out: A2A (Category)).

For the molecule `CCCn1nc(-c2cnc3ccc(C(N)=O)cn23)c2cnc(C(=O)N3CCCCCC3)cc21` [Compound 245, 3-[6-(Azepane-1-carbonyl)-1-propyl-1H-pyrazolo[4,3-c]pyridin-3-yl]-imidazo[1,2-a]pyridine-6-carboxylic acid amide], the IC50 is under 1000 nM in test [2] (read-out: A2B (Category)) and under 100 nM in test [3] (read-out: A2A (Category)).

Turning to `NC(=O)c1ccc2ncc(-c3nn(CC(F)(F)F)c4cc(C(=O)N5CCCOCC5)ncc34)n2c1` [Compound 246, 3-[6-(1,4-Oxazepane-4-carbonyl)-1-(2,2,2-trifluoro-ethyl)-1H-pyrazolo[4,3-c]pyridin-3-yl]-imidazo[1,2-a]pyridine-6-carboxylic acid amide], the IC50 is under 1000 nM in test [2] (read-out: A2B (Category)) and under 100 nM in test [3] (read-out: A2A (Category)).

Turning to `NC(=O)c1ccc2ncc(-c3nn(CC(F)(F)F)c4cc(C(=O)N5CC6CCC(C5)O6)ncc34)n2c1` [Compound 247, 3-[6-(8-Oxa-3-aza-bicyclo[3.2.1]octane-3-carbonyl)-1-(2,2,2-trifluoro-ethyl)-1H-pyrazolo[4,3-c]pyridin-3-yl]-imidazo[1,2-a]pyridine-6-carboxylic acid amide], the IC50 in test [2] (read-out: A2B (Category)) was under 1000 nM; in test [3] (read-out: A2A (Category)), under 100 nM.

Consider `O=C(c1cc2c(cn1)c(-c1cnn3ccncc13)nn2CC(F)(F)F)N1CCCCCC1` [Compound 248, Azepan-1-yl-[3-pyrazolo[1,5-a]pyrazin-3-yl-1-(2,2,2-trifluoro-ethyl)-1H-pyrazolo[4,3-c]pyridin-6-yl]-methanone], for which the IC50 in test [2] (read-out: A2B (Category)) is under 1000 nM; in test [3] (read-out: A2A (Category)) it was under 100 nM.

With `O=C(c1cc2c(cn1)c(-c1cnn3ccncc13)nn2CC(F)(F)F)N1CCCOCC1` [Compound 249, 1,4-Oxazepan-4-yl-[3-pyrazolo[1,5-a]pyrazin-3-yl-1-(2,2,2-trifluoro-ethyl)-1H-pyrazolo[4,3-c]pyridin-6-yl]-methanone], the IC50 was under 1000 nM in test [2] (read-out: A2B (Category)) and under 100 nM in test [3] (read-out: A2A (Category)).

For `CS(=O)(=O)Cn1nc(-c2cnn3ccncc23)c2cnc(C(=O)N3CCCOCC3)cc21` [Compound 250, (1-Methanesulfonylmethyl-3-pyrazolo[1,5-a]pyrazin-3-yl-1H-pyrazolo[4,3-c]pyridin-6-yl)-(1,4-oxazepan-4-yl)methanone], the IC50 in test [2] (read-out: A2B (Category)) is under 1000 nM; in test [3] (read-out: A2A (Category)), under 100 nM.

In the case of `O=C(c1cc2c(cn1)c(-n1cnc3ccccc31)nn2CC(F)(F)F)N1CCCOCC1` [Compound 251, [3-(benzimidazol-1-yl)-1-(2,2,2-trifluoroethyl)pyrazolo[4,3-c]pyridin-6-yl]-(1,4-oxazepan-4-yl)methanone], the IC50 in test [2] (read-out: A2B (Category)) is under 1000 nM; in test [3] (read-out: A2A (Category)), under 100 nM.

On to `O=C(c1cc2c(cn1)c(-n1cnc3ccc(F)cc31)nn2CC(F)(F)F)N1CCCOCC1` [Compound 252, [3-(6-fluorobenzimidazol-1-yl)-1-(2,2,2-trifluoroethyl)pyrazolo[4,3-c]pyridin-6-yl]-(1,4-oxazepan-4-yl)methanone], for which the IC50 in test [2] (read-out: A2B (Category)) and in test [3] (read-out: A2A (Category)) was under 100 nM throughout.

On to `[2H]C1([2H])COCCN(C(=O)c2cc3c(cn2)c(-c2c[nH]c4ccccc24)nn3CC(F)(F)F)C1` [Example 242, (6,6-dideuterio-1,4-oxazepan-4-yl)-[3-(1H-indol-3-yl)-1-(2,2,2-trifluoroethyl)pyrazolo[4,3-c]pyridin-6-yl]methanone], for which the IC50 in test [2] (read-out: A2B (Category)) is under 1000 nM; in test [3] (read-out: A2A (Category)), under 100 nM.

For the molecule `O=C(c1ccc2c(-c3cnc4ccc(F)cn34)nn(CC(F)(F)F)c2c1)N1CCCCCC1` [analogue to No. 44, reference compound], the results for the IC50 in test [2] (setting [6]) and in test [3] (setting [7]) were under 1000 nM and under 100 nM, respectively.

With `O=C(c1ccc2c(-c3cnc4ccc(Cl)cn34)nn(CC(F)(F)F)c2c1)N1CCCCCC1` [analogue to No. 48, reference compound], the IC50 in test [2] (setting [6]) was over 1000 nM; in test [3] (setting [7]), under 100 nM.

`O=C(c1ccc2c(-c3cnc4c(F)cc(F)cn34)nn(CC(F)(F)F)c2c1)N1CCCCCC1` [analogue to No. 60, reference compound]: the IC50 is under 1000 nM in test [2] (setting [6]) and under 100 nM in test [3] (setting [7]).
